Source: PubChem BioAssay AID1224901

Tested on: MCF7 viability, PrestoBlue fluorescence
Test: growth inhibition of MCF7 cells, dose response, mTOR inhibitor project (AID 1224901)

`CCOC(Cn1nc(-c2ccc3oc(N)nc3c2)c2c(N)ncnc21)OCC` gave an EC50 of 8 nM.
